Reference: the NIST ThermoML archive (doi:10.1021/je049895b)

Experiment: xn = mol fraction of the nth substance listed
Details: 101.33 kPa, Liquid; for viscosity: Capillary tube (Ostwald / Ubbelohde) method

C1CCCC1 [cyclopentane] + CCOC(=O)OCC
Details | mass density [kg/m3] | speed of sound [m/s] | viscosity [mPa·s]
293.15 K, x2 = 0 | 744.43 | 1232 | 0.438
293.15 K, x2 = 0.0491 | 757.21 | 1219 | 0.44
293.15 K, x2 = 0.0999 | 770.43 | 1209 | 0.445
293.15 K, x2 = 0.1898 | 793.45 | 1196 | 0.462
293.15 K, x2 = 0.2872 | 817.88 | 1186 | 0.486
293.15 K, x2 = 0.3894 | 842.77 | 1180 | 0.518
293.15 K, x2 = 0.5009 | 868.92 | 1178 | 0.559
293.15 K, x2 = 0.6023 | 891.92 | 1179 | 0.601
293.15 K, x2 = 0.7021 | 913.9 | 1181 | 0.646
293.15 K, x2 = 0.8053 | 935.69 | 1186 | 0.696
293.15 K, x2 = 0.9032 | 955.62 | 1191 | 0.748
293.15 K, x2 = 0.952 | 965.36 | 1194 | 0.778
298.15 K, x2 = 0 | 739.47 | 1206 | 0.415
298.15 K, x2 = 0.0491 | 752.18 | 1194 | 0.416
298.15 K, x2 = 0.0999 | 765.34 | 1184 | 0.421
298.15 K, x2 = 0.1898 | 788.24 | 1172 | 0.437
298.15 K, x2 = 0.2872 | 812.58 | 1163 | 0.459
298.15 K, x2 = 0.3894 | 837.37 | 1157 | 0.489
298.15 K, x2 = 0.5009 | 863.47 | 1156 | 0.527
298.15 K, x2 = 0.6023 | 886.43 | 1157 | 0.564
298.15 K, x2 = 0.7021 | 908.38 | 1160 | 0.606
298.15 K, x2 = 0.8053 | 930.14 | 1165 | 0.654
298.15 K, x2 = 0.9032 | 950.04 | 1170 | 0.699
298.15 K, x2 = 0.952 | 959.78 | 1174 | 0.726
303.15 K, x2 = 0 | 734.47 | 1180 | 0.394
303.15 K, x2 = 0.0491 | 747.11 | 1169 | 0.396
303.15 K, x2 = 0.0999 | 760.19 | 1159 | 0.399
303.15 K, x2 = 0.1898 | 782.99 | 1147 | 0.414
303.15 K, x2 = 0.2872 | 807.23 | 1139 | 0.435
303.15 K, x2 = 0.3894 | 831.95 | 1134 | 0.461
303.15 K, x2 = 0.5009 | 857.97 | 1133 | 0.496
303.15 K, x2 = 0.6023 | 880.91 | 1135 | 0.532
303.15 K, x2 = 0.7021 | 902.82 | 1138 | 0.57
303.15 K, x2 = 0.8053 | 924.56 | 1144 | 0.615
303.15 K, x2 = 0.9032 | 944.44 | 1150 | 0.655
303.15 K, x2 = 0.952 | 954.16 | 1153 | 0.68
308.15 K, x2 = 0 | 729.42 | 1154 | 0.374
308.15 K, x2 = 0.0491 | 741.99 | 1144 | 0.375
308.15 K, x2 = 0.0999 | 755 | 1134 | 0.379
308.15 K, x2 = 0.1898 | 777.7 | 1123 | 0.393
308.15 K, x2 = 0.2872 | 801.84 | 1115 | 0.412
308.15 K, x2 = 0.3894 | 826.49 | 1112 | 0.436
308.15 K, x2 = 0.5009 | 852.45 | 1111 | 0.47
308.15 K, x2 = 0.6023 | 875.35 | 1113 | 0.502
308.15 K, x2 = 0.7021 | 897.23 | 1117 | 0.537
308.15 K, x2 = 0.8053 | 918.94 | 1123 | 0.578
308.15 K, x2 = 0.9032 | 938.8 | 1129 | 0.616
308.15 K, x2 = 0.952 | 948.52 | 1133 | 0.638
313.15 K, x2 = 0 | 724.32 | 1129 | 0.355
313.15 K, x2 = 0.0491 | 736.82 | 1119 | 0.356
313.15 K, x2 = 0.0999 | 749.76 | 1110 | 0.36
313.15 K, x2 = 0.1898 | 772.35 | 1099 | 0.373
313.15 K, x2 = 0.2872 | 796.39 | 1092 | 0.391
313.15 K, x2 = 0.3894 | 820.95 | 1089 | 0.414
313.15 K, x2 = 0.5009 | 846.9 | 1089 | 0.444
313.15 K, x2 = 0.6023 | 869.75 | 1091 | 0.475
313.15 K, x2 = 0.7021 | 891.61 | 1096 | 0.508
313.15 K, x2 = 0.8053 | 913.29 | 1102 | 0.545
313.15 K, x2 = 0.9032 | 933.14 | 1109 | 0.58
313.15 K, x2 = 0.952 | 942.85 | 1112 | 0.6
